Measured values published in paper PMC12320299 (Chemical Science, 2025).

Legend:
[1] = system: CH1/PA-1; set-up: method as in Ref. 1 (ESI); settings: 96 h incubation; ref Ref. 1 (ESI); cited from earlier work
[2] = system: SW480; set-up: method as in earlier work; settings: 96 h incubation; ref 48 (ESI Ref. 1); cited from earlier work
[3] = system: SW480 cancer cells; experiment: Cell cycle analysis by flow cytometry (propidium iodide); assay type: cell-based, human; settings: 24 h; 1a 12.5 to 50 nM; gemcitabine 10 nM
[4] = system: TP53; experiment: Immunofluorescence staining of TP53; assay type: cell-based, human; settings: SW480, 24 h; 1a 1 μM; etoposide 100 nM
Experimental: Cell Signaling Technology (Danvers, MA, USA), respectively. Horseradish-peroxidase-linked secondary antibodies, anti-mouse IgG (Fc specific) antibody (#7076S) and anti-rabbit IgG antibody (#7074S) were purchased from Cell Signaling Technology (Danvers, MA, USA). Anti-ß-actin (AC-15) (A5441, 1:2000) was obtained from Sigma-Aldrich (St. Louis, MO, USA).
SW480 and CT26 cells were grown at a density of 6.7x10^4 cells/mL on 8-well glass coverslips (80841, ibidi GmbH, Gräfelfing, Germany) in 300 µL complete media. The next day, cells were treated with respective compounds for 24 h. Cells were fixed with 4%(v/v) paraformaldehyde for 15 min at RT, followed by washing, blocking and permeabilization with 5%(w/v) BSA and […]
(1 : 500) were diluted in 1% BSA-0.3% Triton-X-100 in PBS and incubated overnight at 4 °C.
One well was incubated without primary antibody as background control. Cells were washed and stained with secondary goat anti-mouse AlexaFlour-488 (1 : 500 dilution, A-11029, Thermo Fisher Scientific) or goat anti-rabbit AlexaFlour-488 (1 : 500 dilution, A-11034, Thermo Fisher Scientific) antibodies for 1 h at RT. Following, cells were stained with 0.2% Wheat Germ Agglutinin (WGA)-Rhodamine (RL-1022, Vector Laboratories, Inc.) and 0.1% DAPI (62248, Thermo Fisher Scientific) for staining of plasma membrane and nuclei, respectively, according to manufacturer’s recommendations. […]

CCC1=C(O)C(=O)c2ccccc2C1=O [a]
IC50 [1]: 173 ± 10 µM
IC50 [2]: 100 ± 10 µM

Nc1ccn([C@@H]2O[C@H](CO)[C@@H](O)C2(F)F)c(=O)n1 [gemcitabine, reference compound]
cell cycle distribution [3]: G0/G1 arrest

COc1cc([C@@H]2c3cc4c(cc3[C@@H](O[C@@H]3O[C@@H]5CO[C@@H](C)O[C@H]5[C@H](O)[C@H]3O)[C@H]3COC(=O)[C@H]23)OCO4)cc(OC)c1O [etoposide, reference compound]
TP53 immunofluorescence signal [4]: enhanced nuclear accumulation of TP53

O=C1C(O)=C(CN2CCOCC2)C(=O)c2ccccc21 [b, 3-morpholine naphthoquinone]
IC50 [1]: > 200 µM
IC50 [2]: 160 ± 30 µM

N.N.[Cl][Pt][Cl] [cisplatin, reference compound]
IC50 [1]: 0.073 ± 0.001 µM
IC50 [2]: 2.3 ± 0.2 µM
